{"source": "patent US11866720B2", "about": "“Transgenic or non-transgenic plants with mutated protoporphyrinogen oxidase having increased tolerance to herbicides” (priority 2013, dated 2024)", "key": {"[1]": {"tested_on": "transgenic soybean expressing mutated PPO", "assay": "Soybean segregating T1 individuals, greenhouse spray test (injury 0-9)", "assay_type": "in vivo, Glycine max", "conditions": "1 week after treatment"}, "[2]": {"tested_on": "transgenic Arabidopsis thaliana plants expressing wildtype or mutated PPO", "assay": "Germination / growth inhibition assay of transgenic Arabidopsis T2 seeds in 48-well plates", "conditions": "growth inhibition seven to ten days after seeding"}}, "note": "Values joined by “and” are separate entries in the source; they are usually repeats but may differ in a detail not shown here. Equal values may be shown once."}
{"smiles": "Cc1nn(-c2cc(NS(C)(=O)=O)c(Cl)cc2Cl)c(=O)n1C(F)F", "note": "[Sulfentrazon, sulfentrazone]", "values": [{"measurement": "injury (0-9 point scale)", "setting": "[1]; SDS10791 AmtuPPX2L R128A_F420I, Sulfentrazone 350 g ai/ha", "value": "9 (5×) and 2 (2×) and 1"}, {"measurement": "injury (0-9 point scale)", "setting": "[1]; SDS10791 AmtuPPX2L R128A_F420I, Sulfentrazone 700 g ai/ha", "value": "3 (3×) and 4 and 9 (3×) and 2"}, {"measurement": "injury (0-9 point scale)", "setting": "[1]; SDS-10642 AmtuPPX2L R128A_F420L, Sulfentrazone 350 g ai/ha", "value": "1 (2×) and 0 (3×) and 3 (2×) and 2"}, {"measurement": "injury (0-9 point scale)", "setting": "[1]; SDS-10648 AmtuPPX2L R128A_F420I, Sulfentrazone 350 g ai/ha", "value": "3 (3×) and 4 (2×) and 5 (2×) and 8"}, {"measurement": "injury (0-9 point scale)", "setting": "[1]; SDS-10648 AmtuPPX2L R128A_F420I, Sulfentrazone 700 g ai/ha", "value": "3 (2×) and 2 and 9 and 4 (4×)"}, {"measurement": "injury (0-9 point scale)", "setting": "[1]; SDS-10652 AmtuPPX2L L397D_F420V, Sulfentrazone 350 g ai/ha", "value": "9 and 6 and 3 (2×) and 5 (2×)"}, {"measurement": "injury (0-9 point scale)", "setting": "[1]; SDS-10787 AmtuPPX2L R128A_F420L, Sulfentrazone 350 g ai/ha", "value": "5 (4×) and 4 and 6 and 9 (2×)"}, {"measurement": "injury (0-9 point scale)", "setting": "[1]; SDS-10985 AmtuPPX2L R128A_F420M, Sulfentrazone 350 g ai/ha", "value": "3 (4×) and 8 and 4 and 1"}, {"measurement": "injury (0-9 point scale)", "setting": "[1]; SDS-10985 AmtuPPX2L R128A_F420M, Sulfentrazone 700 g ai/ha", "value": "1 and 9 (2×) and 2 (2×) and 3 (2×) and 4"}, {"measurement": "injury (0-9 point scale)", "setting": "[1]; SDS-10990 AmtuPPX2L R128A_F420M, Sulfentrazone 350 g ai/ha", "value": "3 (4×) and 4 (2×) and 9 (2×)"}, {"measurement": "injury (0-9 point scale)", "setting": "[1]; SDS-10990 AmtuPPX2L R128A_F420M, Sulfentrazone 700 g ai/ha", "value": "3 and 4 (4×) and 9 (3×)"}, {"measurement": "injury (0-9 point scale)", "setting": "[1]; SDS-11034 AmtuPPX2L R128A_F420V, Sulfentrazone 350 g ai/ha", "value": "1 (3×) and 3 (2×) and 9 and 0"}, {"measurement": "injury (0-9 point scale)", "setting": "[1]; wild type, Sulfentrazone 350 g ai/ha", "value": "9 (5×) and 7 (2×) and 8"}, {"measurement": "Relative tolerance rate as compared to a non-transgenic Arabidopsis plant (non-transgenic = 1.0)", "setting": "[2]; transgenic Arabidopsis AMATU_PPO2_F420I", "value": 193}, {"measurement": "Relative tolerance rate as compared to a non-transgenic Arabidopsis plant (non-transgenic = 1.0)", "setting": "[2]; transgenic Arabidopsis AMATU_PPO2_F420L", "value": 111}, {"measurement": "Relative tolerance rate as compared to a non-transgenic Arabidopsis plant (non-transgenic = 1.0)", "setting": "[2]; transgenic Arabidopsis AMATU_PPO2_F420M", "value": 161}, {"measurement": "Relative tolerance rate as compared to a non-transgenic Arabidopsis plant (non-transgenic = 1.0)", "setting": "[2]; transgenic Arabidopsis AMATU_PPO2_R128A_F420I", "value": 621}, {"measurement": "Relative tolerance rate as compared to a non-transgenic Arabidopsis plant (non-transgenic = 1.0)", "setting": "[2]; transgenic Arabidopsis AMATU_PPO2_R128A_F420L", "value": 717}, {"measurement": "Relative tolerance rate as compared to a non-transgenic Arabidopsis plant (non-transgenic = 1.0)", "setting": "[2]; transgenic Arabidopsis AMATU_PPO2_R128L", "value": 186}, {"measurement": "Relative tolerance rate as compared to a non-transgenic Arabidopsis plant (non-transgenic = 1.0)", "setting": "[2]; transgenic Arabidopsis AMATU_PPO2_dG210", "value": 203}, {"measurement": "Relative tolerance rate as compared to a non-transgenic Arabidopsis plant (non-transgenic = 1.0)", "setting": "[2]; transgenic Arabidopsis AMATU_PPO2_dG210_R128L", "value": 244}]}
